US11896591B2, “Compositions and methods for preparing and using mitochondrial uncouplers” (UNIVERSITY OF VIRGINIA PATENT FOUNDATION, priority 2017, dated 2024)
“Also recorded” adds a separate entry of the source.

Legend:
[1] = patients consuming ˜300 mg/d, over several months, without changes in food intake; cited from earlier work
whole cells = test: Oxygen consumption rate (OCR) in whole cells, Seahorse XF-24 Flux Analyzer; type: cell-based; settings: for EC50: binned EC50 values, increase in oxygen consumption rate in whole cells
Protocol: Biological activities of the compounds synthesized is determined by determining increase in oxygen consumption rate (OCR).
OCR is measured using a Seahorse XF-24 Flux Analyzer (Seahorse Biosciences, North Billerica, MA). NMuLi, C2C12, and L6 cells are seeded in a Seahorse 24-well tissue culture plate at a density of 3.5×10^4 cells/well, isolated cardiomyocytes at a density of 4×10^4 cells/well, and human primary fibroblasts at a density of 1.1×10^4 cells/well. The cells are then allowed to adhere for 24 h. […] Compounds are injected during the assay and OCR is measured using 2 min measurement periods.
2-3 wells are used per condition and averaged over three plates (n=6-9). Statistical significance is determined by two-way ANOVA with Bonferroni's posttest.

[2] = system: Diet-induced Obesity Mouse Model; test: Diet Induced Obesity Mouse Study; type: in vivo, Male C57B/6J mice
Protocol: Male C57B/6J mice aged 3 months (n=6) are assigned to one of three treatment groups: normal chow diet (Chow), western diet (WD) or western diet containing compound 4c (WD+4c). Mice fed WD and WD 4c are individually housed and given 3 grams of fresh food daily. WD+4c contained a dose of 4c equivalent to 50 mg/kg/day. For all treatments pre-weighed food is placed in cages and food intake is calculated daily. Fat and lean mass are measured by EchoMRI. Fat and lean mass for mice given the high fat Western Diet or the Western Diet with the compound 4c was determined by Echo MRI and shown in FIG. 6.

[3] = system: STAM mouse model of fatty liver disease; test: STAM mouse model of fatty liver disease (NALFD criteria: steatosis, inflammation, ballooning); type: in vivo

O=[N+]([O-])c1ccc(O)c([N+](=O)[O-])c1 [DNP, 2,4-dinitrophenol]
Weight loss [1]: 1.5 pounds per week

Oc1ccc(F)c(Nc2nc3nonc3nc2Nc2ccccc2F)c1 [Compound 4z, 4-Fluoro-3-((6-((2-fluorophenyl)amino)-[1,2,5]oxadiazolo[3,4-b]pyrazin-5-yl)amino)phenol]
EC50 (whole cells): > 20 µM

Fc1ccccc1Nc1nc2nc(C(F)(F)F)[nH]c2nc1NC1CCCCC1 [Compound 12v, N^5-(2-fluorophenyl)-N^6-cyclohexyl-2-(trifluoromethyl)-1H-imidazo[4,5-b]pyrazine-5,6-diamine]
EC50 (whole cells): > 20 µM

Fc1ccccc1Nc1nc2nonc2nc1Nc1ccccc1 [Compound 4a, N^5-(2-fluorophenyl)-N^6-phenyl-[1,2,5]oxadiazolo[3,4-b]pyrazine-5,6-diamine]
EC50 (whole cells): < 5 µM

Fc1cc(Nc2nc3nonc3nc2Nc2ccc(OC(F)(F)F)c(F)c2)ccc1OC(F)(F)F [Compound 3bb, N^5,N^6-bis(3-fluoro-4-(trifluoromethoxy)phenyl)-[1,2,5]oxadiazolo[3,4-b]pyrazine-5,6-diamine]
EC50 (whole cells): < 5 µM

Fc1ccccc1Nc1nc2nc(C(F)(F)F)[nH]c2nc1Nc1ccccc1 [Compound 12s, N^5-(2-fluorophenyl)-N^6-phenyl-2-(trifluoromethyl)-1H-imidazo[4,5-b]pyrazine-5,6-diamine]
EC50 (whole cells): 5 to 20 µM

FC(F)(F)c1cc(Nc2nccnc2Nc2cc(C(F)(F)F)cc(C(F)(F)F)c2)cc(C(F)(F)F)c1 [Compound 16f, N^2,N^3-bis(3,5-bis(trifluoromethyl)phenyl)pyrazine-2,3-diamine]
EC50 (whole cells): 5 to 20 µM

Fc1cc(C(F)(F)F)ccc1Nc1nc2nonc2nc1Nc1ccc(C(F)(F)F)cc1F [Compound 3w, N^5,N^6-bis(2-fluoro-4-(trifluoromethyl)phenyl)-[1,2,5]oxadiazolo[3,4-b]pyrazine-5,6-diamine]
EC50 (whole cells): < 5 µM

FC(F)(F)c1ccc(Nc2nccnc2Nc2ccc(C(F)(F)F)cc2)cc1 [Compound 16c, N^2,N^3-bis(4-(trifluoromethyl)phenyl)pyrazine-2,3-diamine]
EC50 (whole cells): < 5 µM

CCCNc1nc2nonc2nc1Nc1ccccc1F [Compound 7c, N^5-(2-fluorophenyl)-N^6-propyl-[1,2,5]oxadiazolo[3,4-b]pyrazine-5,6-diamine]
EC50 (whole cells): 5 to 20 µM

COC(=O)c1ccc(Nc2nc3nonc3nc2Nc2ccccc2F)cc1 [Compound 4y, Methyl 4-((6-((2-fluorophenyl)amino)-[1,2,5]oxadiazolo[3,4-b]pyrazin-5-yl)amino)benzoate]
EC50 (whole cells): < 5 µM

FC(F)(F)c1nc2nc(Nc3ccccc3)c(Nc3ccccc3)nc2[nH]1 [Compound 12l, N^5,N^6-diphenyl-2-(trifluoromethyl)-1H-imidazo[4,5-b]pyrazine-5,6-diamine]
EC50 (whole cells): > 20 µM

Fc1ccccc1Nc1nc2nonc2nc1Nc1ccccn1 [Compound 4b, N^5-(2-fluorophenyl)-N^6-(pyridin-2-yl)-[1,2,5]oxadiazolo[3,4-b]pyrazine-5,6-diamine]
EC50 (whole cells): > 20 µM

Fc1ccccc1Nc1nc2nonc2nc1Nc1cccc(F)c1F [Compound 4e, N^5-(2,3-difluorophenyl)-N^6-(2-fluorophenyl)-[1,2,5]oxadiazolo[3,4-b]pyrazine-5,6-diamine]
EC50 (whole cells): < 5 µM

CCCNc1nc2[nH]c(C(F)(F)F)nc2nc1Nc1ccccc1F [Compound 12w, N^5-(2-fluorophenyl)-N^6-propyl-2-(trifluoromethyl)-1H-imidazo[4,5-b]pyrazine-5,6-diamine]
EC50 (whole cells): > 20 µM

Fc1cccc(Nc2nc3nonc3nc2Nc2cccc(F)c2)c1 [Compound 3n, N^5,N^6-bis(3-fluorophenyl)-[1,2,5]oxadiazolo[3,4-b]pyrazine-5,6-diamine]
EC50 (whole cells): < 5 µM

COc1ccc(Nc2nc3c(nc2Nc2ccccc2F)nc(C(F)(F)F)n3C)cc1 [Compound 13r, 1-Methyl-N^5-(2-fluorophenyl)-N^6-(4-methoxyphenyl)-2-(trifluoromethyl)-imidazo[4,5-b]pyrazine-5,6-diamine]
EC50 (whole cells): > 20 µM

Fc1ccccc1Nc1nc2nc(C(F)(F)F)[nH]c2nc1Nc1ccccc1F [Compound 12a, N^5,N^6-bis(2-fluorophenyl)-2-(trifluoromethyl)-1H-imidazo[4,5-b]pyrazine-5,6-diamine]
EC50 (whole cells): 5 to 20 µM

Cn1c(C(F)(F)F)nc2nc(Nc3ccccc3C(F)(F)F)c(Nc3ccccc3C(F)(F)F)nc21 [Compound 13c, N^5,N^6-bis(2-(trifluoromethyl)phenyl)-1-methyl-2-(trifluoromethyl)-imidazo[4,5-b]pyrazine-5,6-diamine]
EC50 (whole cells): 5 to 20 µM

Fc1cccc(Nc2nc3nonc3nc2Nc2ccccc2F)c1 [Compound 4c, N^5-(2-fluorophenyl)-N^6-(3-fluorophenyl)-[1,2,5]oxadiazolo[3,4-b]pyrazine-5,6-diamine]
Glucose tolerance test ([2]; WD + 50 mg/kg/day compound 4c vs WD): significantly improved glucose tolerance
Lean mass ([2]; WD + 4c 50 mg/kg/day vs WD, EchoMRI): without losing lean mass; also recorded: substantially the same lean mass
Food intake ([2]; WD + 4c vs WD): without a significant change in food intake
Fat mass ([2]; Western Diet (WD) + 4c 50 mg/kg/day vs WD, EchoMRI): gain less fat mass; also recorded: gained significantly less fat mass
Anti-inflammatory effects ([3]; STAM mouse model (FIG. 3)): anti-inflammatory effects
Combined NALFD score ([3]; based on the steatosis, inflammation and ballooning assays, vs BAM15): significantly lower NALFD score than BAM15
EC50 (whole cells): < 5 µM
Oxygen consumption rate as a function of drug dose (whole cells; compared with BAM15 or FCCP (FIG. 1, FIG. 2)): higher oxygen consumption rate than mitochondrial uncouplers, BAM15 or FCCP; also recorded: consistently high oxygen consumption rate than the mitochondrial uncoupler BAM15

COc1ccc(Nc2nc3nonc3nc2Nc2ccccc2F)cc1 [Compound 4l, N^5-(2-fluorophenyl)-N^6-(4-methoxyphenyl)-[1,2,5]oxadiazolo[3,4-b]pyrazine-5,6-diamine]
EC50 (whole cells): < 5 µM

FC(F)(F)Oc1ccccc1Nc1nc2nonc2nc1Nc1ccccc1OC(F)(F)F [Compound 3k, N^5,N^6-bis(2-(trifluoromethoxy)phenyl)-[1,2,5]oxadiazolo[3,4-b]pyrazine-5,6-diamine]
EC50 (whole cells): < 5 µM

COc1cccc(Nc2nc3nonc3nc2Nc2cccc(OC)c2)c1 [Compound 3e, N^5,N^6-bis(3-methoxyphenyl)-[1,2,5]oxadiazolo[3,4-b]pyrazine-5,6-diamine]
EC50 (whole cells): > 20 µM

Fc1cc(F)cc(Nc2nc3nonc3nc2Nc2cc(F)cc(F)c2)c1 [Compound 3cc, N^5,N^6-bis(3,5-difluorophenyl)-[1,2,5]oxadiazolo[3,4-b]pyrazine-5,6-diamine]
EC50 (whole cells): < 5 µM

FC(F)(F)Oc1cccc(Nc2nc3nonc3nc2Nc2cccc(OC(F)(F)F)c2)c1 [Compound 3l, N^5,N^6-bis(3-(trifluoromethoxy)phenyl)-[1,2,5]oxadiazolo[3,4-b]pyrazine-5,6-diamine]
EC50 (whole cells): < 5 µM

Cn1c(C(F)(F)F)nc2nc(Nc3ccc(OC(F)(F)F)c(F)c3)c(Nc3ccc(OC(F)(F)F)c(F)c3)nc21 [Compound 13f, N^5,N^6-bis(3-fluoro-4-(trifluoromethoxy)phenyl)-1-methyl-2-(trifluoromethyl)-imidazo[4,5-b]pyrazine-5,6-diamine]
EC50 (whole cells): 5 to 20 µM

FC(F)(F)c1cc(Nc2nc3nonc3nc2Nc2cc(C(F)(F)F)cc(C(F)(F)F)c2)cc(C(F)(F)F)c1 [Compound 3z, N^5,N^6-bis(3,5-bis(trifluoromethyl)phenyl)-[1,2,5]oxadiazolo[3,4-b]pyrazine-5,6-diamine]
EC50 (whole cells): > 20 µM

CCOc1cccc(Nc2nc3nonc3nc2Nc2ccccc2F)c1 [Compound 4n, N^5-(3-ethoxyphenyl)-N^6-(2-fluorophenyl)-[1,2,5]oxadiazolo[3,4-b]pyrazine-5,6-diamine]
EC50 (whole cells): < 5 µM
